Data taken from ChEMBL document CHEMBL3507680, “University of Dundee, Gates Library screen for HepG2 cell viability”.

Test: Human HepG2 cell viability assay in 384 well format
Assay type: toxicity, cell-based
Set-up: dose 125 nL, time 70.5 hour; concentration not given beside the values
Conditions: HepG2 cells, read-out: Inhibition

SMILES	cytotoxicity at 70.5 h [%]
CSCCCN1C[C@H](NC(=O)c2cc(C3CC3)on2)[C@@H](C2CC2)C1	-7.58
O=C(NCCn1ccnc1-c1cc2n(n1)CCCNC2)c1ccncc1	-2.02
COc1ccc(N2CCC(N3C[C@H](NC(C)=O)[C@@H](C(C)C)C3)CC2)cc1	-7.18
Cc1noc(-c2ccc(N(C)Cc3ccncc3C)nc2)n1	-5.41
COC(=O)N1CCCCC1C(=O)N1CCN(c2ncccc2C)CC1 (configuration not stated)	-1.8
CN(Cc1cc2n(n1)CCCNC2)Cc1ccno1	-5.8
Cc1cc(C)n2nc(C(=O)N3CCCC4(CCOC4)C3)cc2n1 (configuration not stated)	-10.3
Cc1nc(C(=O)N2CCC(c3nnc(Cn4ccnc4)n3C)CC2)cs1	-8.64
CN(C)Cc1nnc(C2CCCN(Cc3ccc(Cl)s3)C2)n1C (configuration not stated)	5.14
CN(C)C(=O)c1cn2cc(-c3ccccc3Cl)n(CC3CC3)c(=O)c2n1	-3.22
CCC1CN(C(=O)c2cccc(O)c2)CCC(=O)N1Cc1ccccc1 (configuration not stated)	0.303
Cn1cc(CN2CCCC(CCc3c(F)cccc3F)C2)cn1 (configuration not stated)	1.58
CCn1ccnc1CNC1CC(=O)N(CCc2cccc(Cl)c2)C1 (configuration not stated)	-2.81
COc1ccc(-c2n[nH]cc2CN(C)CCC2CCOCC2)cc1F	-1.66
O=C(CC1CCc2ccccc21)NC1(C(=O)O)CCCC1 (configuration not stated)	22.9
COc1cccc(CCn2ccnc2-c2cn(C3CCNCC3)nn2)c1	28.6
CCCc1nccn1-c1ccc(C(O)CN2CCOCC2)cc1 (configuration not stated)	27.6
CCn1c(CC2CCN(C(=O)c3ccnn3C)CC2)n[nH]c1=O	-6.64
O=C1N(Cc2ccc(F)cc2)CCCC12CCN(C1CCSCC1)C2 (configuration not stated)	-6
O=C(C1CCCC1)N1CC[C@]2(O)CCN(Cc3ncccn3)C[C@@H]2C1	-3.12
O=C(CCc1cc2n(n1)CCCN(C(=O)[C@H]1CCCO1)C2)NC1CC1	3.28
COc1ccc(OC)c(C2CCN(C3CCOCC3)C2)c1 (configuration not stated)	6.32
CCOc1ccccc1C(=O)N1CCCC(O)(CN(C)C)C1 (configuration not stated)	11.6

SMILES	cytotoxicity at 70.5 h [%]
Cc1nc(CN2CCN(C(=O)COc3c(C)ccc(C)c3C)CC2)no1	-4.73
Cc1ccc(NC(=O)[C@@H]2C[C@H](C(=O)O)CN(Cc3sccc3C)C2)cn1	18.3
OC1CCN(c2ccnc(NCCc3ccccc3Cl)n2)C1 (configuration not stated)	-3.46
N#Cc1cccc(N2CCC3(CC2)Nc2ccccc2NC3=O)n1	-5.8
CCn1c(N)nc2cc(C(=O)NCCc3ccncc3)cnc21	-13.4
O=C1CCCN1Cc1nc(-c2ccsc2)no1	19.8
Cc1nc(N2CCC(O)(c3ccc(F)cc3)CC2)c2c(C)nn(C)c2n1	-3.16
CS(=O)(=O)N1CCC(NCC2(N3CCOCC3)CCCCC2)CC1	-12.3
O=C(NCC1CCCO1)Nc1nnc(C(F)(F)F)s1 (configuration not stated)	-15.8
c1cncc(-n2cnnc2CC2CCNCC2)c1	-0.719
COc1cc(F)c(CN2CCN(CC(C)C)C(=O)C2C)cc1OC (configuration not stated)	-1.44
CC(=O)N1CCc2c(nc(N(C)C)nc2NCc2cccs2)C1	-4.81
COc1cc(CN2CCCC23CCN(c2ccccn2)CC3)ccc1F	-0.0865
CNc1ncc(CN(C)Cc2cc3n(n2)CCNC3)cn1	-9
Cc1ccc(CN2CCN(Cc3ccc4nonc4c3)CC2=O)cc1	1.65
CCOc1cc(CN2CCCC2)ccc1Oc1cccc(C#N)n1	-1.2
COCCc1noc(CN(C)c2nc(C)cc(C)n2)n1	-9.27
O=C(O)CCc1cc2n(n1)CCCN(C(=O)c1cc3ccccc3s1)C2	30
CCN1CCN(CC(=O)N2CCOC(Cc3ccc(OC)cc3)C2)CC1 (configuration not stated)	-16
CC(C)N1CCC(C(=O)N(C)C(C)c2ccon2)CC1 (configuration not stated)	-0.598
Cc1c(C(C)NC2CCN(C(C)C)CC2)cnn1-c1ccc(F)cc1F (configuration not stated)	-9.98
CC(C)(C)N1CC(C(=O)N2CC(Oc3ccc(F)cc3)C2)CC1=O (configuration not stated)	18.6
Cc1oc(-c2ccsc2)nc1CN1CC[C@@H]2CCCC[C@H]2C1	13.8

SMILES	cytotoxicity at 70.5 h [%]
CCCN(CCOC)C(=O)c1cc(Cn2c(C)nc3ccccc32)[nH]n1	-2.8
CCn1c(CC2CCN(S(=O)(=O)c3cccc(C)c3)CC2)nn(C)c1=O	-4.11
CC(C)(C)c1cc2ncn(CCCN3CCCCC3CO)c(=O)c2s1 (configuration not stated)	-14.7
CC(C)Cc1ncc2c(n1)CN(C(=O)c1ccc(CN3CCCC3)o1)C2	-7.27
CC(C)N1CCC(CC(=O)NCCc2cc(O)ncn2)CC1	-11.7
NC(=O)C1CCCN(Cc2ccc(C(=O)Nc3cnns3)cc2)C1 (configuration not stated)	5.24
CCC[C@@H]1CN(Cc2ccccc2-c2ccco2)C[C@H]1NC(C)=O	-5.42
CCc1nc(NC(=O)NCCc2cccc(C)n2)nn1C	-12.7
C[C@@H]1CN(Cc2nnc(-c3cccnc3)o2)CC[C@]1(C)O	6.07
COc1cccc(OC)c1OCCn1c(C)c(C)oc1=O	0.271
CC[C@H]1CN(C(=O)c2cnc(CN3CCCC3)s2)CC[C@@]1(C)O	22.4
Cc1ncsc1CCC(=O)NC1CCN(c2ccc(Cl)nn2)CC1	-13.9
CCOc1ccccc1-c1cc2c(cc1C(N)=O)OCO2	9.52
CCc1cc(CN2CCC(CCC(=O)Nc3ccccc3Cl)CC2)on1	-0.0329
CCCc1nc(C(=O)N(C)Cc2cnn(-c3cccc(OC)c3)c2)cs1	-8.69
O=C(O)[C@@H]1CN(Cc2ccc3nsnc3c2)C[C@H]1c1ccncc1	6.98
CCCc1c(C2CCOC(C)(C)C2)nc(N)c(C#N)c1-c1cnn(C)c1 (configuration not stated)	-2.75
CCN(Cc1noc(C)n1)C(=O)CC1C(=O)NCCN1CC(C)(C)C (configuration not stated)	9.61
O=C1Nc2ccccc2C12CCCN(Cc1ccncc1)C2 (configuration not stated)	-10.6
Cc1ccc(N2CCN(C(=O)CCc3n[nH]c(C)c3C)CC2=O)cc1	-0.118
OCCN1CCc2[nH]nc(C(c3ccccc3)c3ccccc3)c2C1	-7.95
CCn1cc(CN2CCCn3nc(CNC(=O)N(C)C)cc3C2)cn1	-7.73
COc1cc2c(cc1CNC(=O)C(C)n1ccnc1C(C)C)OCCO2 (configuration not stated)	-3.89

SMILES	cytotoxicity at 70.5 h [%]
C[C@@H]1CN(Cc2ccncc2)C[C@@]1(O)C1CC1	-11.5
CCN(Cc1c(C)nn(C)c1C)C(=O)C1COc2ccccc2C1 (configuration not stated)	-4.62
Cc1cc(CC2COc3ccccc3C2)cnc1N (configuration not stated)	-13.2
CCC1c2cccn2CCN1C(=O)c1ccno1 (configuration not stated)	-9.21
OCc1ccc(CN2CCC(n3cc(-c4ccsc4)nn3)CC2)o1	-5.24
CC(Cn1cccn1)NCc1csc2c1CCCC2 (configuration not stated)	0.457
CCCN1CCN(C(=O)Cc2cccnc2)[C@H]2CS(=O)(=O)C[C@H]21	11.9
CCCc1nc(C)cc(N2CCNC(C(=O)NCc3cccnc3)C2)n1 (configuration not stated)	31
CCc1cnc(C)nc1NCCc1nc(N)cc(O)n1	-3.5
CNc1cc(C)nc(N2CCC3(CC2)[C@H](O)C[C@@H]3OCCO)n1	-4.12
Cc1cnn(C(C)C2CC2)c1NC(=O)c1ccco1 (configuration not stated)	-3.4
Cc1nccnc1N1Cc2cnc(CC(C)C)nc2C1	-6.3
CCCc1cncnc1N1CCC(NCCc2nc(O)cc(O)n2)CC1	-7.02
COc1cnc(N2CC(N3CCOCC3)C2)nc1-c1ccnn1C	6.03
CSCc1noc(CNC(=O)C2CCN(C(=O)C3CCCC3)CC2)n1	-10.6
CC(C)N1CCCC(CN(C)c2ccc(Cn3ccnc3)cn2)C1 (configuration not stated)	-12.6
CCOc1ccc(C(=O)CCC(=O)NCc2cncn2CC)cc1C	40.5
CCc1n[nH]c(C(=O)N2CCCC3(CN(C)C(=O)O3)C2)c1C (configuration not stated)	-13.7
Cc1ccc(F)cc1-n1c(CCCN2CCOCC2)n[nH]c1=O	-7.44
O=C(CCC(F)(F)F)N1CCN(Cc2ccncc2)[C@@H]2CS(=O)(=O)C[C@@H]21	24
O=C(NCCc1cnccn1)c1ccc(S(=O)(=O)NC2CCC2)cc1	18.7
COc1cccc(C(=O)N2CCC3(CCC(=O)N(C(C)C)C3)CC2)c1C	-4.66
CSCCCN1C[C@H]2CC[C@@H]1CN(Cc1[nH]cnc1C)C2	-2.71

SMILES	cytotoxicity at 70.5 h [%]
COc1cccc2c(=O)n(CCN3CCNCC3)cnc12	-0.783
CCN1CCN(S(=O)(=O)N2CCCCCC2)[C@H]2CS(=O)(=O)C[C@H]21	30
CN1CC2(CCN(C(=O)CCCOCc3ccccc3)C2)OC1=O (configuration not stated)	-11.2
COc1cc(C)ccc1OCc1nc(C(=O)N2CCC(C)CC2)co1	-2.55
CCOc1ccc(-c2cc(CCN)ccc2OC)cc1	-1.62
O=C(CCc1cc(O)no1)N1CCCC(OCc2cccnc2)C1 (configuration not stated)	-10.1
OC1CCN(C2CCN(Cc3cccc(Cn4cccn4)c3)CC2)CC1	5.45
O=C(C1CC1)N1CCc2c(ncnc2N2CCN3CCCC3C2)C1 (configuration not stated)	26
CCc1ncc(C(=O)N2CCCN(C3CCCC3)CC2)cn1	-14.6
CN(C)CCNC(=O)c1cc2n(n1)CCN(C(=O)CC(C)(C)C)C2	-9.74
c1ccc(C2CCCN(Cc3cc4n(n3)CCNC4)CC2)cc1 (configuration not stated)	-6.51
CO[C@H]1CN(C(C)C)C[C@@H]1NC(=O)c1cc(COc2ccccc2)[nH]n1	-3.71
O=C(c1cnc2ccccc2c1)N1CCCC(O)(CN2CCCC2)C1 (configuration not stated)	-0.693
Cc1cc2c(cc1C(=O)N1CCC3(CC(=O)NC3=O)C1)OCCO2 (configuration not stated)	10.6
CC(=O)N1CCN(C(=O)Nc2cnc3c(cnn3C(C)C)c2)CC1	14.8
COc1ccccc1C(O)CNC(=O)NCc1csc(C)n1 (configuration not stated)	1.19
COc1ccc(C(CNC(=O)NCc2csc(C)n2)N(C)C)cc1 (configuration not stated)	21
CCS(=O)(=O)c1ccccc1N1CCC(NC(=O)C2CC2)CC1	1.87
Cc1ccc(-c2cc(CNC(=O)N3CCCN(C)CC3)on2)cc1	2.1
CCc1nc(C2CCCN(C(=O)c3ccccc3O)C2)no1 (configuration not stated)	3.74
